No end group written: not given here.
What was measured:
[1] = mouse, in vivo
Protocol: Serum OC concentrations were measured with ELISA kit for mouse OC (Biomedical Technologies), which is formulated for both ucOC and GlaOC, with the two forms being discriminated with the use of hydroxyapatite. Serum (50 µl) was thus mixed with 10 mg of hydroxyapatite (Sigma-Aldrich) and rotated at 4 °C for 1 h, after which the hydroxyapatite (and bound GlaOC) was removed by centrifugation and the supernatant was assayed for ucOC.
Figure 5 Serum levels of total OC and ucOC after intraperitoneal or oral administration of ucOC or GlaOC. Serum levels of total OC (A) or ucOC (B) were measured 20 min after administration of ucOC or GlaOC at a dose of 7 µg/kg intraperitoneally (i.p.) or 10 µg/kg orally (p.o.) in mice that had been deprived of food for 5 h; black circles indicate values for individual mice, with the horizontal bars representing the mean values. *P < 0.05 versus saline-treated animals [one-way ANOVA followed by either Dunnett's multiple-comparison test (A) or Tukey's HSD post hoc test (B)].

[2] = Absorption of 125I-labeled ucOC into the systemic circulation (blood radioactivity); type: in vivo, mouse; conditions: n = 5 each
Protocol: An expression vector for a glutathione S-transferase-ucOC fusion protein was constructed by introduction of mouse OC cDNA into the vector pGEX-4T-1 (GE Healthcare, Buckinghamshire, UK). The fusion protein was produced in bacteria and purified with glutathione-Sepharose beads (GE Healthcare) according to standard procedures. The final washes of the beads were performed with a buffer containing 0.1% Triton X-114 (Sigma-Aldrich, St. Louis, MO) and then with the same buffer without detergent in order to remove endotoxin [17]. […] The purity of the ucOC preparation was assessed by sodium dodecyl sulfate-polyacrylamide gel electrophoresis with Tris-Tricine and staining with Coomassie blue, and the concentration and integrity of the protein were determined with an enzyme-linked immunosorbent assay (ELISA) kit for mouse OC (Biomedical Technologies, Stoughton, MA). […]
Figure 6 Absorption of ^125I-labeled ucOC into the systemic circulation. Mice were administered ^125I-labeled ucOC (5 µg/kg, 4,000 to 6,000 cpm) intraperitoneally (circles, n = 5) or orally (squares, n = 5), and blood was collected into tubes containing 5 mM EDTA (to prevent coagulation) at 30 and 60 min thereafter for measurement of radioactivity. The percentage of the administered radioactivity present in the circulation was calculated assuming a total blood volume of 2 ml. […]

Male C57BL/6J mice [3] = assay: Serum insulin concentration after intraperitoneal or oral treatment, with or without sitagliptin and exendin(9–39); type: in vivo, mouse; conditions: for Serum insulin concentration, i.p. 7 µg/kg alone / Serum insulin concentration, oral 10 µg/kg: blood 20 min later; for Serum insulin concentration, i.p. 7 µg/kg alone: four to six mice; for Serum insulin concentration, oral 10 µg/kg: 10 µg/kg orally, with or without sitagliptin and exendin(9–39)
Protocol: (§1) Male C57BL/6J mice (Jackson Laboratory, Bar Harbor, ME) were maintained in a specific pathogen-free facility under a 12 h-light, 12 h-dark cycle and were moved to a conventional facility for experiments at 6 to 8 weeks of age. All animal experiments were approved by the animal ethics committee of Kyushu University. Animals were anesthetized with sevoflurane and blood (maximally up to 100 µl) was collected from the orbital plexus of mice treated as indicated. Dipeptidyl peptidase (DPP)-IV inhibitor (Merck-Millipore, Billerica, MA) was added to the samples to a final concentration of 100 µM.
(B, C) Mice deprived of food for 5 h (blood glucose level, 103.5 mg/dl) were administered sitagliptin (1 µg/kg) or saline orally and then 30 min later were treated with ucOC or GlaOC intraperitoneally (7 µg/kg) (B) or orally (10 µg/kg) (C) in combination with intraperitoneal injection of exendin(9–39) (25 nmol/kg) or saline. […] All data are means ± SEM for four to six mice. *P < 0.05, **P < 0.01, †P = 0.06 versus control (open bar) or for the indicated comparisons (Student's t test).

STC-1 cells = assay: GLP-1 secretion from STC-1 cells (ELISA of culture supernatant); type: cell-based, mouse
Protocol: STC-1 cells (kindly provided from Dr. G. Tsujimoto, Kyoto University), a mouse enteroendocrine cell line were cultured under a humidified atmosphere of 5% CO2 at 37 °C in Dulbecco's modified Eagle's medium supplemented with 15% horse serum, 5% fetal bovine serum, penicillin (100 U/ml), and streptomycin (0.1 mg/ml). The cells were routinely passaged at 80 to 90% confluence.
STC-1 cells in a six-well plate were washed three times and then incubated with recombinant mouse ucOC or with GlaOC (ANA Spec, Fremont, CA) in Hanks' balanced salt solution for 60 min at 37 °C. The culture supernatants were then assayed for GLP-1 with ELISA kit (Shibayagi, Gunma, Japan).
Figure 2 OC-induced GLP-1 secretion in STC-1 cells. STC-1 cells were incubated for 60 min with vehicle (control) or the indicated concentrations of ucOC, GlaOC, or PMA. Data are expressed relative to the control value (33.1 pg per 1 × 10^5 cells) and are means ± SEM from four to eight independent experiments. *P < 0.05, **P < 0.01 versus control (Student's t test).

Male C57BL/6J mice [4] = assay: Serum GLP-1 concentration after intraperitoneal administration of OC; type: in vivo, mouse
Protocol: (§2) Figure 3 Effect of intraperitoneal or oral administration of OC on serum GLP-1 concentration. (A) Mice were deprived of food for 5 h and then injected intraperitoneally with saline (control) or the indicated doses of recombinant ucOC, of GlaOC. Blood was collected 20 min later for determination of the serum concentration of GLP-1. Part of mice was orally administered with sitagliptin (1 µg/kg) 30 min before injection of OC. (B) Mice deprived of food for 5 h were treated orally with saline (control) or the indicated doses of ucOC or GlaOC. Blood samples collected 20 min later were assayed for serum GLP-1 concentration. All data are means ± SEM for five to seven mice. *P < 0.05, **P < 0.01 versus control (Student's t test).

Male C57BL/6J mice [5] = assay: Serum GLP-1 concentration after oral administration of OC; type: in vivo, mouse; conditions: mice fasted 5 h, no sitagliptin pretreatment, blood 20 min later, five to seven mice
Protocol: as §2

Male C57BL/6J mice [6] = system: Male C57BL/6J mice
Protocol: as §1

[7] = cited from earlier work

Osteocalcin (YLGASVPSPDPLEPTREQCELNPACDELSDQYGLKTAYKRIYGITI; ends and bridges not checked; cysteine pairing not given here; UniProt P86546 50-95, looked up) [osteocalcin, a peptide composed of 46 amino acids; form (uc- or Gla-) not specified at the place]
Absorption rate at fivefold higher oral dose [1]: 0.8% | Absorption rate at twofold higher oral dose [1]: 2%

^125I-labeled ucOC: ucOC iodinated with Na^125I as GST fusion, released with thrombin (YLGASVPSPDPLEPTREQCELNPACDELSDQYGLKTAYKRIYGITI; ends and bridges not checked; also: 125I label, site not given here; UniProt P86546 50-95, looked up)
Gross absorption, % of the administered radioactivity in the circulation at 30 min ([2]; 5 µg/kg (4,000 to 6,000 cpm) i.p. or orally, assuming total blood volume of 2 ml): 2 to 8% | Blood radioactivity at 60 min compared with 30 min ([2]; 5 µg/kg i.p. or orally): increased further or decreased to a small extent

exendin(9–39) [reference compound]
Antagonism of the exendin-4-induced increase in serum insulin (Male C57BL/6J mice [3]; exendin(9–39) 25 nmol/kg i.p. 30 min before exendin-4 25 nmol/kg i.p.): sensitive to prior injection of exendin(9–39) | Effect of exendin(9–39) on the sitagliptin-induced increase in serum insulin (Male C57BL/6J mice [3]; sitagliptin orally, exendin(9–39) i.p., data not shown): blocked by administration of exendin(9–39)

GlaOC: γ-carboxylated form of the bone-derived protein osteocalcin (ANA Spec) (YLGASVPSPDPLEPTREQCELNPACDELSDQYGLKTAYKRIYGITI; ends and bridges not checked; also: γ-carboxylated on three glutamic acid residues (places not given here); UniProt P86546 50-95, looked up)
Effect on GLP-1 secretion at the concentrations examined (STC-1 cells; 60 min): did not affect GLP-1 secretion | Serum GLP-1 level, i.p., sitagliptin-pretreated mice (Male C57BL/6J mice [4]; mice fasted 5 h, oral sitagliptin 1 µg/kg 30 min before, i.p., blood 20 min later): did not increase the serum GLP-1 level | Serum GLP-1 concentration after oral administration (Male C57BL/6J mice [5]): a similar effect was apparent | Serum insulin concentration, i.p. 7 µg/kg alone (Male C57BL/6J mice [3]; mice fasted 5 h, 7 µg/kg i.p.): no effect on serum insulin | Serum insulin concentration, oral 10 µg/kg (Male C57BL/6J mice [3]; mice fasted 5 h): tended to increase serum insulin, although this effect did not achieve statistical significance | Serum GLP-1 level after tail vein injection of GlaOC (Male C57BL/6J mice [6]; fasted mice, data not shown): no effect | Serum insulin level after tail vein injection of GlaOC (Male C57BL/6J mice [6]; fasted mice, data not shown): no effect

uncarboxylated osteocalcin (YLGASVPSPDPLEPTREQCELNPACDELSDQYGLKTAYKRIYGITI; ends and bridges not checked; cysteine pairing not given here; UniProt P86546 50-95, looked up) [ucOC]
Effect on GLP-1 secretion at 30 ng/ml (STC-1 cells; 60 min, 30 ng/ml): no longer apparent | Effect on GLP-1 secretion at concentrations of >10 ng/ml (STC-1 cells; >10 ng/ml): markedly diminished | Serum GLP-1 concentration, i.p., without sitagliptin (Male C57BL/6J mice [4]; mice fasted 5 h, blood 20 min after i.p. injection, no DPP-IV inhibitor pretreatment, five to seven mice): increase in the serum concentration of GLP-1, but with only statistically insignificance | Serum GLP-1 concentration, i.p. 7 µg/kg, sitagliptin-pretreated (Male C57BL/6J mice [4]; mice fasted 5 h, oral sitagliptin 1 µg/kg 30 min before, 7 µg/kg i.p., blood 20 min later): significant increase | Serum GLP-1 concentration, i.p. 10 µg/kg, sitagliptin-pretreated (Male C57BL/6J mice [4]; mice fasted 5 h, oral sitagliptin 1 µg/kg 30 min before, 10 µg/kg i.p., blood 20 min later): no such effect | Effect on GLP-1 secretion at intraperitoneal doses of >7 µg/kg (Male C57BL/6J mice [4]; mice, i.p. >7 µg/kg): markedly diminished | Serum GLP-1 concentration after oral administration (Male C57BL/6J mice [5]): increased the serum concentration of GLP-1 in a dose-dependent manner | Serum insulin concentration, i.p. 7 µg/kg alone (Male C57BL/6J mice [3]; mice fasted 5 h, 7 µg/kg i.p.): significant increase | Serum insulin concentration, oral 10 µg/kg (Male C57BL/6J mice [3]; mice fasted 5 h): Essentially identical results | Serum insulin increase, i.p. 7 µg/kg with sitagliptin pretreatment (Male C57BL/6J mice [3]; oral sitagliptin 1 µg/kg 30 min before 7 µg/kg i.p.): enhanced by sitagliptin | Serum insulin increase, i.p. 7 µg/kg with sitagliptin and exendin(9–39) (Male C57BL/6J mice [3]; oral sitagliptin 1 µg/kg, 7 µg/kg i.p., exendin(9–39) 25 nmol/kg i.p.): abolished by exendin(9–39) | Serum concentration of GLP-1 at 30 min after i.v. injection (Male C57BL/6J mice [6]; 30 ng per animal, tail vein, mice fasted 5 h): further increased | Serum concentration of insulin after i.v. injection (Male C57BL/6J mice [6]; 30 ng per animal, tail vein, mice fasted 5 h, 15 and 30 min): increased as well | Serum concentration of GLP-1 at 15 min after i.v. injection (Male C57BL/6J mice [6]; 30 ng per animal, tail vein, mice fasted 5 h, four to six mice): significantly increased | Serum insulin concentration after i.v. 300 ng (Male C57BL/6J mice [6]; 300 ng per animal i.v., fasted mice, data not shown): no effect on the serum insulin concentration | Blood concentration after i.v. 300 ng (Male C57BL/6J mice [6]; mouse, in vivo, iv): 28 nM | Expected initial serum concentration after i.v. 30 ng (Male C57BL/6J mice [6]; mouse, in vivo, iv): ~30 ng/mL | Initial concentration in blood after i.v. 30 ng (Male C57BL/6J mice [6]; mouse, in vivo, iv): 2.7 nM

N[C@@H](CC(=O)N1CCn2c(nnc2C(F)(F)F)C1)Cc1cc(F)c(F)cc1F [Sitagliptin, sitagliptin, reference compound]
Serum insulin concentration, sitagliptin alone (Male C57BL/6J mice [3]; mice fasted 5 h, sitagliptin 1 µg/kg orally): small increase in the serum insulin concentration

calcitonin
Rate of absorption from the intestine into the bloodstream [7]: ~5%
